According to ChEMBL document CHEMBL1201862, “PubChem BioAssay data set” (2004):
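Briefly, cells in 96-well plates were exposed to five compound concentrations for 48 h, and endpoints were estimated by linear interpolation. GI50 = concentration required for 50% inhibition of growth.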 Calls of active or inactive are those of the source. Rule as the data show it: active = GI50 up to about 1.1 µM and inactive = higher.

Columns and labels:
Test in all cases: NCI-60 cell line screen, 48 h
OVCAR-8 = tested on: OVCAR-8
SNB-75 = tested on: SNB-75
T47D = tested on: T47D
RPMI-8226 = tested on: RPMI-8226
ACHN = tested on: ACHN
UACC-62 = tested on: UACC-62
SK-MEL-2 = tested on: SK-MEL-2
SK-MEL-28 = tested on: SK-MEL-28
NCI-H460 = tested on: NCI-H460
COLO 205 = tested on: COLO 205
Hs-578T = tested on: Hs-578T
HCC 2998 = tested on: HCC 2998
PC-3 = tested on: PC-3
CAKI-1 = tested on: CAKI-1
SK-MEL-5 = tested on: SK-MEL-5
SR = tested on: SR
MCF7 = tested on: MCF7
LOX IMVI = tested on: LOX IMVI
NCI/ADR-RES = tested on: NCI/ADR-RES
BT-549 = tested on: BT-549

Measured: GI50

O=C1Nc2ccccc2/C1=N/NC(=S)Nc1ccc(Cl)cc1
inactive: OVCAR-8 18.2 µM | SNB-75 33 µM | T47D 83 µM | RPMI-8226 49.7 µM | ACHN 25.6 µM | UACC-62 50.7 µM | SK-MEL-2 24.5 µM | SK-MEL-28 > 100 µM | NCI-H460 15.5 µM | COLO 205 40.8 µM | Hs-578T > 100 µM | HCC 2998 > 100 µM | PC-3 33.7 µM | CAKI-1 11.3 µM | SK-MEL-5 17.2 µM | SR 10.8 µM | MCF7 48.6 µM | LOX IMVI 27.7 µM | NCI/ADR-RES 12.1 µM

COC(=O)C1(C(=O)OC)C/C(C)=C(/C)SCCCS1
inactive: OVCAR-8 > 100 µM | SNB-75 28.4 µM | T47D > 100 µM | ACHN > 100 µM | UACC-62 > 100 µM | SK-MEL-2 > 100 µM | SK-MEL-28 > 100 µM | NCI-H460 > 100 µM | COLO 205 > 100 µM | Hs-578T > 100 µM | HCC 2998 > 100 µM | PC-3 64.1 µM | CAKI-1 > 100 µM | SK-MEL-5 > 100 µM | SR 81.3 µM | MCF7 > 100 µM | LOX IMVI > 100 µM | NCI/ADR-RES > 100 µM

CCOC(=O)c1ccc(NCc2ccc3nc(OC)c(OC)nc3c2)cc1
inactive: OVCAR-8 84.7 µM | SNB-75 33.7 µM | T47D 57.1 µM | ACHN > 100 µM | UACC-62 > 100 µM | SK-MEL-2 > 100 µM | SK-MEL-28 > 100 µM | NCI-H460 > 100 µM | COLO 205 > 100 µM | HCC 2998 > 100 µM | PC-3 > 100 µM | CAKI-1 > 100 µM | SK-MEL-5 > 100 µM | SR > 100 µM | MCF7 > 100 µM | LOX IMVI > 100 µM | NCI/ADR-RES > 100 µM

Cc1cc(S(=O)(=O)NC2=NNC(C)CN2)c(S)cc1Cl (configuration not stated)
inactive: OVCAR-8 32.1 µM | SNB-75 93.5 µM | T47D 37.8 µM | RPMI-8226 20.1 µM | BT-549 49.3 µM | ACHN 46.1 µM | UACC-62 51.2 µM | SK-MEL-2 21 µM | SK-MEL-28 41.6 µM | NCI-H460 54.2 µM | COLO 205 > 100 µM | HCC 2998 37.3 µM | PC-3 63.7 µM | CAKI-1 56.8 µM | SK-MEL-5 35.1 µM | SR 37.2 µM | MCF7 35.8 µM | LOX IMVI 18.4 µM | NCI/ADR-RES 33.4 µM

CSc1ncnc2c1cnn2Cc1cnnn1COCC(O)CO (configuration not stated)
inactive: OVCAR-8 > 100 µM | T47D > 100 µM | RPMI-8226 > 100 µM | BT-549 > 100 µM | ACHN > 100 µM | UACC-62 > 100 µM | SK-MEL-2 > 100 µM | SK-MEL-28 > 100 µM | COLO 205 > 100 µM | HCC 2998 > 100 µM | PC-3 > 100 µM | CAKI-1 > 100 µM | SK-MEL-5 > 100 µM | SR > 100 µM | MCF7 > 100 µM | LOX IMVI > 100 µM | NCI/ADR-RES > 100 µM

CCOC(=O)c1cnc(-n2[nH]c(C)c(CCO)c2=O)[nH]c1=O
inactive: OVCAR-8 > 100 µM | SNB-75 88.3 µM | T47D > 100 µM | RPMI-8226 > 100 µM | ACHN > 100 µM | UACC-62 > 100 µM | SK-MEL-2 > 100 µM | SK-MEL-28 > 100 µM | NCI-H460 > 100 µM | COLO 205 > 100 µM | Hs-578T > 100 µM | HCC 2998 > 100 µM | PC-3 > 100 µM | CAKI-1 > 100 µM | SK-MEL-5 > 100 µM | MCF7 > 100 µM | LOX IMVI > 100 µM | NCI/ADR-RES > 100 µM

Cc1cn(C2CC(/[N+]([O-])=N\Nc3ccc([N+](=O)[O-])cc3)C(CO)O2)c(=O)[nH]c1=O (configuration not stated)
inactive: OVCAR-8 > 100 µM | RPMI-8226 42.8 µM | BT-549 > 100 µM | ACHN > 100 µM | UACC-62 > 100 µM | SK-MEL-28 > 100 µM | NCI-H460 94.2 µM | COLO 205 > 100 µM | Hs-578T > 100 µM | HCC 2998 40.7 µM | PC-3 > 100 µM | CAKI-1 > 100 µM | SR 4.62 µM | LOX IMVI > 100 µM | NCI/ADR-RES > 100 µM

Cc1ccc(-n2c(N)c(C#N)c3[nH]nc(N)c3c2=O)cc1
inactive: OVCAR-8 > 100 µM | SNB-75 > 100 µM | T47D > 100 µM | RPMI-8226 > 100 µM | ACHN > 100 µM | UACC-62 > 100 µM | SK-MEL-2 > 100 µM | SK-MEL-28 > 100 µM | NCI-H460 > 100 µM | COLO 205 > 100 µM | Hs-578T > 100 µM | HCC 2998 > 100 µM | PC-3 > 100 µM | CAKI-1 > 100 µM | SK-MEL-5 > 100 µM | SR > 10 µM | MCF7 > 100 µM | LOX IMVI > 100 µM | NCI/ADR-RES > 100 µM
